Each structure is given as a SMILES string. *1 amine or outer side, *2 acyl side, *3 side chain or, on linkers, in order; H or OH if unused. Where a SMILES comes first, the peptide text is derived from it. [ ]: non-standard residue; d: D form. The star is where a group is joined. Pheol(OBn) = c1ccc(COC[C@H](Cc2ccccc2)N*)cc1; NH(4-phenylbutyl) = c1ccc(CCCCN*)cc1; X1 = C[C@H](N[*:1])C(=O)C(=O)[*:2]

As usually defined, the IC50 is the point on the concentration scale where inhibition reaches its midpoint.

Assay [1] concerns WT RHBDL4 (recombinant, purified). Put plainly: TAMRA-FP competition labelling on recombinant RHBDL4. The assay is classed as binding, human. The conditions noted are these: in-gel Cy3 fluorescence, compared with inactive RHBDL4-S144A control. The text has this: (§1) B, schematic representation of the peptidyl-α-ketoamide scaffold with peptide sequence P5-P1 at the nonprime side and hydrophobic substituent (R) at the prime side. C, schematic representation of the peptidyl-α-ketoamide inhibitor, compound 1a/1b. D, representative inhibition curve derived from measuring rates of RHBDL4 proteolysis of the fluorescent substrate IQ6 with increasing concentrations of compound 1a. E, same as (D), except inhibition curve was derived from using increasing concentrations of compound 1b. […] Reactions were quenched with 1 keLaemmli buffer and loaded on 12% SDS-PAGE gel. Post-transfer membranes were visualized using a fluorescence Cy3 filter and by Western blotting using an α-His antibody. For (A, D, and E), all inhibitors were pre-incubated with RHBDL4 for 1 h and allowed to react with the IQ6 substrate for 2 h.
(§2) B, representative inhibition curve derived from measuring rates of RHBDL4 proteolysis of the fluorescent substrate IQ6 with increasing concentrations of compound 3. C, same as (B), except inhibition curve was derived from using increasing concentrations of compound 4. […] Reactions were quenched with 1 RLaemmli buffer and loaded on 12% SDS-PAGE gel. Post-transfer membranes were visualized using a fluorescence Cy3 filter and by Western blotting using an α-His antibody. E, saturation curve of RHBDL4 using fluorescent substrate, KSp207. For (B and C), all inhibitors were pre-incubated with RHBDL4 for 1 h and allowed to react with the IQ6 substrate for 2 h. […] I assigned them to the substrate KSp207, which is named on the x-axis and in the inset table.

Assay [2] relates to RHBDL4-GFP in ER-enriched microsomes of HEK293T cells. Put plainly: TAMRA-FP competition label assay in ER-enriched microsomes. It is filed as binding, human. To be noted: 100 μM compound, 1 h preincubation at 37 °C, then 500 nM TAMRA-FP 2 h at 37 °C; n = 3. On the procedure: Figure 6 RHBDL4 inhibition studies in ER-enriched microsomes ER-enriched microsomes were preincubated with 100 μM of compounds or DMSO vehicle control followed by the addition of 500 nM of TAMRA-FP serine hydrolase probe. RHBDL4-GFP was immunoprecipitated with an α-GFP antibody and loaded on SDS-PAGE. TAMRA-FP labeling was analyzed via Cy3 filter followed by Western blotting using α-GFP antibody, n = 3.
ER-enriched microsomes were obtained by hypotonic swelling and centrifugation from Hek293T cells 24 h after transfection. To this end, cells from a subconfluent 15-cm plate were resuspended in isolation buffer (10 mM Hepes-KOH pH 7.4, 1.5 mM MgCl2, 10 mM KCl, EDTA-free complete protease inhibitor cocktail from Roche). After 10 min incubation at 4 °C, cells were lysed by passing six times through a 27-gauge needle. Cellular debris and nuclei were discarded after centrifugation at 1000g for 5 min at 4 °C. The supernatant was spun at 100,000g for 30 min at 4 °C. The membrane pellet was resuspended in 40 μl RM buffer (50 mM Hepes-KOH pH 7.4, 250 mM sucrose, 50 mM KOAc, 2 mM Mg(OAc)2). […] TAMRA-FP-labeling was analyzed in the wet gel with a green light source (535 nm) and a Cy3 filter by detecting fluorescence emission using ImageQuant 800 Fluor CCD imager (Cytiva) followed by Western blotting using an α-GFP antibody (Roche).

Assay [3] addresses T1, recombinant human RHBDL4 (Homo sapiens, UniProt Q8TEB9).
T1 construct: The entire RHBDL4 and RHBDL4-S144A cDNAs were subcloned into the pcDNA3.1 vector; 6xHis (C, cleaved yes); made in house; host or cells: Freestyle 293-F cells (transient transfection, pcDNA3.1-HisA)
T1 sequence (Q8TEB9 1-315): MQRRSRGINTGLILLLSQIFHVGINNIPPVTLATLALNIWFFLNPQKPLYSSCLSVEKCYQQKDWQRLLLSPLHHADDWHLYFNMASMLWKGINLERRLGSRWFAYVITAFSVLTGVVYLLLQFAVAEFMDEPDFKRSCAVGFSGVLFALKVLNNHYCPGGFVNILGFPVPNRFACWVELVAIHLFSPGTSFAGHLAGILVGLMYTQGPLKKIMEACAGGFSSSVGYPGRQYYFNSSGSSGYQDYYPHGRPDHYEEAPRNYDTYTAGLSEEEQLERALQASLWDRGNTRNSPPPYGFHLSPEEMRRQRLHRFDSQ
Put plainly: Inhibition of RHBDL4 proteolysis of IQ6 (FRET-based in vitro assay). It is filed as biochemical. To be noted: IQ6 substrate; inhibitor pre-incubated with RHBDL4 for 1 h, then reacted with IQ6 for 2 h; triplicate, average ± S.E.M.
Description: as §1, §2
The enzymatic assay was performed as previously described (Arutyunova et al., 2014, ([26])). […] The FRET-based cleavage assay was conducted in a fluorescence multiwell plate reader (SynergyMx, BioTek). Upon excitation at 320 nm, the emission intensity at 400 nm was recorded for 2 h at minimal intervals under shaking conditions and plotted using the GraphPad PRISM software. The initial velocities were defined as the slopes of the curve of the generated product as a function of time. The plots of the generated product against the corresponding substrate concentration were fitted with the Michaelis–Menten equation. Catalytic parameters were extrapolated using GraphPad PRISM. […] The samples were desalted using C18 tips (Rainin), eluted in 80% acetonitrile, and dried down in a vacuum centrifuge prior to mass spectrometry analysis.

On to `CSCC[C@H](NC(=O)[C@H](CCC(N)=O)NC(C)=O)C(=O)N[C@@H](CCC(=O)O)C(=O)N[C@@H](CO)C(=O)N[C@@H](C)C(=O)C(=O)NCCCCc1ccccc1` [compound 3] (Ac-QMES[X1]-{NH(4-phenylbutyl)}), for which, in assay [1], the “competition with TAMRA-FP probe (fluorescent signal)” value is given as “reduction in overall fluorescent signal”. Further, the “TAMRA-FP labeling of RHBDL4-GFP” value in assay [2] is listed as “reduced”. Moreover, the IC50 in assay [3] amounted to 0.054 ± 0.013 µM.
For `CSCC[C@H](NC(=O)[C@H](CCC(N)=O)NC(C)=O)C(=O)N[C@@H](CCC(=O)O)C(=O)N[C@@H](CO)C(=O)N[C@@H](C)C(=O)C(=O)N[C@H](COCc1ccccc1)Cc1ccccc1` [compound 4] (Ac-QMES[X1]-{Pheol(OBn)}), the “competition with TAMRA-FP probe (fluorescent signal)” value in assay [1] is given as “reduction in overall fluorescent signal”. Moreover, the “TAMRA-FP labeling of RHBDL4-GFP” value in assay [2] is recorded as “reduced”.

The record behind these values is article PMC11929074, “An in vitro platform for the enzymatic characterization of the rhomboid protease RHBDL4” (The Journal of Biological Chemistry, 2025).
